From PMC6943732, “The Disulfide Stress Response and Protein S-thioallylation Caused by Allicin and Diallyl Polysulfanes in Bacillus subtilis as Revealed by Transcriptomics and Proteomics” (Antioxidants, 2019)

How the values were obtained:
Format in all cases: cell-based
OhrR-FLAG = target: T1, OhrR-FLAG (Bacillus subtilis, UniProt O34777); experiment: IP and Orbitrap LC-MS/MS of S-thioallylated Cys peptides (+[…] Da); conditions: covalent; cells treated with 90 µM allicin, 30 min; Cys15 (b28 names the redox-sensing residue Cys22)
T1 construct: FLAG-tagged, expressed in B. subtilis, immunoprecipitated from allicin-treated cells
T1 sequence (O34777 1-147): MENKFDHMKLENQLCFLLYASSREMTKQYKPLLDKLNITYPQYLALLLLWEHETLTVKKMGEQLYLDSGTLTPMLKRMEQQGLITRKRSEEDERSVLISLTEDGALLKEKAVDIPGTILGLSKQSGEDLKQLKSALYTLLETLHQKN

PpaC = target: T2, PpaC (Bacillus subtilis, UniProt P37487); experiment: shotgun Orbitrap LC-MS/MS of S-thioallylated Cys peptides (+[…] Da); conditions: covalent, active site Cys158
T2 construct: native, in treated cells, shotgun proteomics of tryptic peptides
T2 sequence (P37487 whole entry): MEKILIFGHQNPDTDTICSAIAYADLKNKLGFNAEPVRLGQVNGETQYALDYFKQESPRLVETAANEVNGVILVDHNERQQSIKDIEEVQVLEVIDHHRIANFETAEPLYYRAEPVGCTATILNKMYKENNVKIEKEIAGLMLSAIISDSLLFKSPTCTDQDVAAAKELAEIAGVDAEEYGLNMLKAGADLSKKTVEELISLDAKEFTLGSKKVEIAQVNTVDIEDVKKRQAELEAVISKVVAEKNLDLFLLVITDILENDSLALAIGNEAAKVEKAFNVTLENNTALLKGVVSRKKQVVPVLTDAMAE

TufA (EF-Tu) = target: T3, TufA (EF-Tu) (Bacillus subtilis, UniProt P33166); experiment: as above; conditions: covalent, Cys83
T3 construct: gene tuf; native, in treated cells, shotgun proteomics of tryptic peptides
T3 sequence (P33166 2-396): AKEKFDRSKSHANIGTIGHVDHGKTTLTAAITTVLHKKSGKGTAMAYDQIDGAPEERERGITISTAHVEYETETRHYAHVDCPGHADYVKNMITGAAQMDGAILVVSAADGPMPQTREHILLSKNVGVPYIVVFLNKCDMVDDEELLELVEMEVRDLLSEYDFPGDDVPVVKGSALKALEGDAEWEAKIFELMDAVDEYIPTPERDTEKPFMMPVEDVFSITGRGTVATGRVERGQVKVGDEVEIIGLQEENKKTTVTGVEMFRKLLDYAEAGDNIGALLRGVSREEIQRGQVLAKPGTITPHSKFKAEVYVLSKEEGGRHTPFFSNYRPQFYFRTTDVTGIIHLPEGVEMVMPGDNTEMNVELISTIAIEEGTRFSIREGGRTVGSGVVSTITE

YodB = target: T4, YodB (Bacillus subtilis, UniProt O34844); experiment: IP and Orbitrap LC-MS/MS of S-thioallylated Cys peptides (+[…] Da); conditions: covalent; allicin-treated cells; Cys101 (Cys6 peptide not identified)
T4 construct: native, immunoprecipitated with polyclonal antibody from allicin-treated cells
T4 sequence (O34844 whole entry): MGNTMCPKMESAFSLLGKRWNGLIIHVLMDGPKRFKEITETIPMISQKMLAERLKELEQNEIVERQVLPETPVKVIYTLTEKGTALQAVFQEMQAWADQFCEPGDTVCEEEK

FusA (EF-G) = target: T5, FusA (EF-G) (Bacillus subtilis, UniProt P80868); experiment: shotgun Orbitrap LC-MS/MS of S-thioallylated Cys peptides (+[…] Da); conditions: covalent, Cys239
T5 construct: native, in treated cells, shotgun proteomics of tryptic peptides
T5 sequence (P80868 2-692): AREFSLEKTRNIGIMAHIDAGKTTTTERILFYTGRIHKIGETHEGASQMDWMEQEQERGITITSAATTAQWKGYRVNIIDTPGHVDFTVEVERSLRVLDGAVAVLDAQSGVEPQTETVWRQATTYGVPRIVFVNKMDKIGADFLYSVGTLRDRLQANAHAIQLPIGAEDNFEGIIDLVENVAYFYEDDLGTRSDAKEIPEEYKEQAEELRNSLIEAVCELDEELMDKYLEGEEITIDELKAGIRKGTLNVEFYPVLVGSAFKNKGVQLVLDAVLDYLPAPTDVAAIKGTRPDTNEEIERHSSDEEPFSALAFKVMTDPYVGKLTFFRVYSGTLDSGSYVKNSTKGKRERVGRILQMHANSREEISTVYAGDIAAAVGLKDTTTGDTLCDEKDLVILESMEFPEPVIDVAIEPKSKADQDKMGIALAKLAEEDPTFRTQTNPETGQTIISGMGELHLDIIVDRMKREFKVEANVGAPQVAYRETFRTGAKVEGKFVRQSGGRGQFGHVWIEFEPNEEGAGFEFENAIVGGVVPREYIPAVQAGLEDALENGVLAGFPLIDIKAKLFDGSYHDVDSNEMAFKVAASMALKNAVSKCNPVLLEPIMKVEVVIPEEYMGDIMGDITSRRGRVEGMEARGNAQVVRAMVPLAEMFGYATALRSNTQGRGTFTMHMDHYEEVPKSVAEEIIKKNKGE

GlnA = target: T6, GlnA (Bacillus subtilis, UniProt P12425); experiment: as above; conditions: covalent
T6 construct: native, in treated cells, shotgun proteomics of tryptic peptides
T6 sequence (P12425 2-444): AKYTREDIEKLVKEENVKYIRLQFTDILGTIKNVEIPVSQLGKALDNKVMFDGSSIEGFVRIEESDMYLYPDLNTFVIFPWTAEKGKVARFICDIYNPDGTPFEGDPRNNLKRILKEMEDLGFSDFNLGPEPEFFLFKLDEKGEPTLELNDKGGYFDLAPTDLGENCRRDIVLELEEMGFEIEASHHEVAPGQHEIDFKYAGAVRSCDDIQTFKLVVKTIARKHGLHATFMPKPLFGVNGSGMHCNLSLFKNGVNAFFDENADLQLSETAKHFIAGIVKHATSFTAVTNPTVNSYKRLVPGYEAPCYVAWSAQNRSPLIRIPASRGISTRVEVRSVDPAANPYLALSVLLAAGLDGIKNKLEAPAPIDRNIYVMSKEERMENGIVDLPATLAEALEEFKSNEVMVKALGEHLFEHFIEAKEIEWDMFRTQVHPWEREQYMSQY

MetE = target: T7, MetE (Bacillus subtilis, UniProt P80877); experiment: as above; conditions: covalent, Cys719/Cys730
T7 construct: native, in treated cells, shotgun proteomics of tryptic peptides
T7 sequence (P80877 2-762): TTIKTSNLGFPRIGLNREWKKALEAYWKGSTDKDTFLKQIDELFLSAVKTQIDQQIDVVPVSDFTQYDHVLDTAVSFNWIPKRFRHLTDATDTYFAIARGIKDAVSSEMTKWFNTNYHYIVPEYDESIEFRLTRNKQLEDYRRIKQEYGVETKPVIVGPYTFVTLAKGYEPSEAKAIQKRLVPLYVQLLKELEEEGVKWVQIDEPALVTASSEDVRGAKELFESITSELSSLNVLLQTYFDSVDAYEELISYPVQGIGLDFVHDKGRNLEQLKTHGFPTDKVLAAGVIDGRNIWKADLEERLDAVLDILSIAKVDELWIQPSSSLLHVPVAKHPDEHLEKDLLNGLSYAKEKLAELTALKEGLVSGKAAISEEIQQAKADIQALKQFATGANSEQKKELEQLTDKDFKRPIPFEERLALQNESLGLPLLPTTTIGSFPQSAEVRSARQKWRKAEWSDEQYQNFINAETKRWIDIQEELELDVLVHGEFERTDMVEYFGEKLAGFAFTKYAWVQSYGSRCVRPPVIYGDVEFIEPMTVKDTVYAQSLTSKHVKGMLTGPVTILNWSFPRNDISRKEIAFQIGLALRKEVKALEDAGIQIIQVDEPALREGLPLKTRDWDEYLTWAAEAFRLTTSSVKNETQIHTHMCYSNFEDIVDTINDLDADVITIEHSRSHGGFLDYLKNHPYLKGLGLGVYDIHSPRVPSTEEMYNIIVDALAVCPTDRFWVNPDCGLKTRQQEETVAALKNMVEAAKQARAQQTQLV

CatR = target: T8, CatR (Bacillus subtilis, UniProt O32238); experiment: IP and Orbitrap LC-MS/MS of S-thioallylated Cys peptides (+[…] Da); conditions: covalent; allicin-treated cells; Cys7
T8 construct: gene yvaP; native, immunoprecipitated with polyclonal antibody from allicin-treated cells
T8 sequence (O32238 1-108): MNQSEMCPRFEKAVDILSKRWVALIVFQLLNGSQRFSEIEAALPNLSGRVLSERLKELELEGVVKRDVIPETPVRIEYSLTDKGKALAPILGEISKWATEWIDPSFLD

SerA = target: T9, SerA (Bacillus subtilis, UniProt P35136); experiment: shotgun Orbitrap LC-MS/MS of S-thioallylated Cys peptides (+[…] Da); conditions: covalent, redox-sensitive Cys
T9 construct: native, in treated cells, shotgun proteomics of tryptic peptides
T9 sequence (P35136 1-525): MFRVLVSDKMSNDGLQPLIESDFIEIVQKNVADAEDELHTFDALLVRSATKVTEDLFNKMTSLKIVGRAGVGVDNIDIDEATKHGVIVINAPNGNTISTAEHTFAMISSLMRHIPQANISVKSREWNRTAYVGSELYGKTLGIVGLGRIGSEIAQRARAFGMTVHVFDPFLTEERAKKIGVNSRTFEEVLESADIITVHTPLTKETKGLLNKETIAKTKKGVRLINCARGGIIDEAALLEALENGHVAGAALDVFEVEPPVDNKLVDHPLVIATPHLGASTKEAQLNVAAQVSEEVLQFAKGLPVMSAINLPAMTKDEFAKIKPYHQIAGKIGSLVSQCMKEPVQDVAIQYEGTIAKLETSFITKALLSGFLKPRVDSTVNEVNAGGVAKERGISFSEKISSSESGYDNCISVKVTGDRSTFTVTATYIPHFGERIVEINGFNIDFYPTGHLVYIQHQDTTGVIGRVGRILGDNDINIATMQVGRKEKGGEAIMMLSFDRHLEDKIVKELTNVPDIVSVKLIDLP

HypR = target: T10, HypR (Bacillus subtilis, UniProt P37486); experiment: IP and Orbitrap LC-MS/MS of S-thioallylated Cys peptides (+[…] Da); conditions: covalent; allicin-treated cells; Cys14
T10 construct: gene yybR; native, immunoprecipitated with polyclonal antibody from allicin-treated cells
T10 sequence (P37486 whole entry): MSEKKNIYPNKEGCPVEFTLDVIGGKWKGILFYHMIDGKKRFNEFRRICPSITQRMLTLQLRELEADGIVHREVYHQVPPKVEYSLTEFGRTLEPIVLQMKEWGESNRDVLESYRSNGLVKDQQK

YxjG = target: T11, YxjG (Bacillus subtilis, UniProt P42318); experiment: shotgun Orbitrap LC-MS/MS of S-thioallylated Cys peptides (+[…] Da); conditions: covalent, redox-sensitive Cys
T11 construct: native, in treated cells, shotgun proteomics of tryptic peptides
T11 sequence (P42318 1-378): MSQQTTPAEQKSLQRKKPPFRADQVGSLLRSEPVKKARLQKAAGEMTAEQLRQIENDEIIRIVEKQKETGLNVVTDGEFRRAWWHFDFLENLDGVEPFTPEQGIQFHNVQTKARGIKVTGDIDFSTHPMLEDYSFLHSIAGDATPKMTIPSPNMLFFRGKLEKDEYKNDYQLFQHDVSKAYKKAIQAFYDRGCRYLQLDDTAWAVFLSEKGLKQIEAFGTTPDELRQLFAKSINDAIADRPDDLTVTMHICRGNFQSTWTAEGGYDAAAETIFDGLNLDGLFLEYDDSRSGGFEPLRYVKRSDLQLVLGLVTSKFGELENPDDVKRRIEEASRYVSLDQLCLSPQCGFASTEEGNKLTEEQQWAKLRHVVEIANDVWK

GuaB = target: T12, GuaB (Bacillus subtilis, UniProt P21879); experiment: as above; conditions: covalent, active site Cys308
T12 construct: native, in treated cells, shotgun proteomics of tryptic peptides
T12 sequence (P21879 whole entry): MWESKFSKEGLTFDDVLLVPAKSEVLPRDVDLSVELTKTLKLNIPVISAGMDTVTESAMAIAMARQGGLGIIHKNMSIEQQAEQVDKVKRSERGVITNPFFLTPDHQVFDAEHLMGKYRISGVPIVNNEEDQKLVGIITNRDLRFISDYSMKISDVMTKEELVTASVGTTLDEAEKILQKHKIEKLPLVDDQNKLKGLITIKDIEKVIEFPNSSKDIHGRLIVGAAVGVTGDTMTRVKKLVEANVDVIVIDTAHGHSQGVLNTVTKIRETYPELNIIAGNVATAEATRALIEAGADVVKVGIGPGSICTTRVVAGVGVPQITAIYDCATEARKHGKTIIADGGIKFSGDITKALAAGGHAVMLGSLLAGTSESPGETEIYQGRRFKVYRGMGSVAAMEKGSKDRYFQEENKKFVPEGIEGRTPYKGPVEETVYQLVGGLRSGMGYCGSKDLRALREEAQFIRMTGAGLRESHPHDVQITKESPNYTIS

[1] = cells treated with 90 µM allicin, 30 min
[2] = cells treated with 92 µM DAS4, 30 min

SMILES	IP and Orbitrap LC-MS/MS of S-thioallylated Cys peptides (+72 Da) (OhrR-FLAG)	shotgun Orbitrap LC-MS/MS of S-thioallylated Cys peptides (+72 Da) (PpaC; [1])	shotgun Orbitrap LC-MS/MS of S-thioallylated Cys peptides (+72 Da) (TufA (EF-Tu); [1])	IP and Orbitrap LC-MS/MS of S-thioallylated Cys peptides (+72 Da) (YodB)	shotgun Orbitrap LC-MS/MS of S-thioallylated Cys peptides (+72 Da) (FusA (EF-G); [1])	shotgun Orbitrap LC-MS/MS of S-thioallylated Cys peptides (+72 Da) (GlnA; cells treated with 90 µM allicin, 30 min, conserved Cys)	shotgun Orbitrap LC-MS/MS of S-thioallylated Cys peptides (+72 Da) (MetE; [1])	IP and Orbitrap LC-MS/MS of S-thioallylated Cys peptides (+72 Da) (CatR)	shotgun Orbitrap LC-MS/MS of S-thioallylated Cys peptides (+72 Da) (SerA; [1])	IP and Orbitrap LC-MS/MS of S-thioallylated Cys peptides (+72 Da) (HypR)	shotgun Orbitrap LC-MS/MS of S-thioallylated Cys peptides (+72 Da) (YxjG; [1])	shotgun Orbitrap LC-MS/MS of S-thioallylated Cys peptides (+72 Da) (GuaB; [1])	shotgun Orbitrap LC-MS/MS of S-thioallylated Cys peptides (+72 Da) (PpaC; [2])	shotgun Orbitrap LC-MS/MS of S-thioallylated Cys peptides (+72 Da) (TufA (EF-Tu); [2])	shotgun Orbitrap LC-MS/MS of S-thioallylated Cys peptides (+72 Da) (FusA (EF-G); [2])	shotgun Orbitrap LC-MS/MS of S-thioallylated Cys peptides (+72 Da) (GlnA; [2])	shotgun Orbitrap LC-MS/MS of S-thioallylated Cys peptides (+72 Da) (MetE; [2])	shotgun Orbitrap LC-MS/MS of S-thioallylated Cys peptides (+72 Da) (SerA; [2])	shotgun Orbitrap LC-MS/MS of S-thioallylated Cys peptides (+72 Da) (YxjG; [2])	shotgun Orbitrap LC-MS/MS of S-thioallylated Cys peptides (+72 Da) (GuaB; [2])
C=CCS[S+]([O-])CC=C (centres unmarked) [allicin]	modified by S-thioallylation for OhrR (Cys15), HypR (Cys14), and CatR (Cys7)	pyrophosphatase PpaC were S-thioallylated by allicin and DAS4 in B. subtilis	modified at their conserved Cys residues, e.g., Cys83 of TufA	For the YodB-repressor, only Cys101 was S-thioallylated	Cys83 of TufA, Cys239 of FusA	MetE, YxjG, MetI, AroA, ArgJ, CarB, GlnA	Cys239 of FusA, and Cys719/Cys730 of MetE	modified by S-thioallylation for OhrR (Cys15), HypR (Cys14), and CatR (Cys7)	SerA, and PpaC were modified at their redox-sensitive Cys residues by allicin and DAS4	modified by S-thioallylation for OhrR (Cys15), HypR (Cys14), and CatR (Cys7)	TufA, MetE, YxjG, GuaB, SerA, and PpaC were modified at their redox-sensitive Cys residues	GuaB and PpaC were S-thioallylated at their conserved redox-sensing active sites Cys308 and Cys158								
C=CCSSSSCC=C [DAS4]													pyrophosphatase PpaC were S-thioallylated by allicin and DAS4 in B. subtilis	modified at their conserved Cys residues, e.g., Cys83 of TufA	Cys83 of TufA, Cys239 of FusA	MetE, YxjG, MetI, AroA, ArgJ, CarB, GlnA	Cys239 of FusA, and Cys719/Cys730 of MetE	SerA, and PpaC were modified at their redox-sensitive Cys residues by allicin and DAS4	TufA, MetE, YxjG, GuaB, SerA, and PpaC were modified at their redox-sensitive Cys residues	GuaB and PpaC were S-thioallylated at their conserved redox-sensing active sites Cys308 and Cys158
